Experiments:
Type in all cases: in vivo
[1] = system: speedwell (bird's-eye speedwell, Veronica persica); experiment: Test C postemergence, plant response rating; details: for Speedwell plant response rating: scale 0 to 100 (0 no effect, 100 complete control)
Summary of the method: (§1)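 After sowing in loam–sand blend or silt loam, pots were sprayed preemergence; separately grown 1- to 4-leaf plants were sprayed postemergence. Following 13 to 15 d under greenhouse conditions, injury was rated visually on a 0 to 100 scale.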

[2] = system: pigweed, palmer (palmer pigweed, Amaranthus palmeri); experiment: Test C postemergence, plant response rating; details: for Pigweed, Palmer plant response rating: scale 0 to 100 (0 no effect, 100 complete control)
Summary of the method: as §1

[3] = system: wild poinsettia (Euphorbia heterophylla); experiment: Test C postemergence, plant response rating; details: for Poinsettia, Wild plant response rating: scale 0 to 100 (0 no effect, 100 complete control)
Summary of the method: as §1

[4] = system: surinam grass (Brachiaria decumbens); experiment: Test C postemergence, plant response rating
Summary of the method: as §1

[5] = system: field violet (Viola arvensis); experiment: Test C postemergence, plant response rating; details: for Field Violet plant response rating: scale 0 to 100 (0 no effect, 100 complete control)
Summary of the method: as §1

[6] = system: johnsongrass (Sorghum halepense); experiment: Test C postemergence, plant response rating; details: for Johnsongrass plant response rating: scale 0 to 100 (0 no effect, 100 complete control)
Summary of the method: as §1

[7] = system: nightshade (eastern black nightshade, Solanum ptycanthum); experiment: Test C postemergence, plant response rating; details: for Nightshade plant response rating: scale 0 to 100 (0 no effect, 100 complete control)
Summary of the method: as §1

[8] = system: windgrass (Apera spica-venti); experiment: Test C postemergence, plant response rating
Summary of the method: as §1

[9] = system: field poppy (Papaver rhoeas); experiment: Test C postemergence, plant response rating; details: for Field Poppy plant response rating: scale 0 to 100 (0 no effect, 100 complete control)
Summary of the method: as §1

[10] = system: Canada thistle (Cirsium arvense); experiment: Test C postemergence, plant response rating; details: for Canada Thistle plant response rating: scale 0 to 100 (0 no effect, 100 complete control)
Summary of the method: as §1

[11] = system: geranium, cutleaf (cutleaf geranium, Geranium dissectum); experiment: Test C postemergence, plant response rating; details: for Geranium, Cutleaf plant response rating: scale 0 to 100 (0 no effect, 100 complete control)
Summary of the method: as §1

[12] = system: buckwheat, wild (wild buckwheat, Polygonum convolvulus); experiment: Test C postemergence, plant response rating; details: for Buckwheat, Wild plant response rating: scale 0 to 100 (0 no effect, 100 complete control)
Summary of the method: as §1

[13] = system: wild poinsettia (Euphorbia heterophylla); experiment: Test C preemergence, plant response rating
[14] = system: pigweed, palmer (palmer pigweed, Amaranthus palmeri); experiment: Test C preemergence, plant response rating
[15] = system: johnsongrass (Sorghum halepense); experiment: Test C preemergence, plant response rating
[16] = system: nightshade (eastern black nightshade, Solanum ptycanthum); experiment: Test C preemergence, plant response rating
[17] = system: windgrass (Apera spica-venti); experiment: Test C preemergence, plant response rating
[18] = system: barnyardgrass (Echinochloa crus-galli); experiment: Test C preemergence, plant response rating; details: Preemergence
[19] = 125 g ai/ha, scale 0 to 100 (0 no effect, 100 complete control)

CCCCC(=O)c1c(Br)cccc1Oc1ncc(Cl)cn1 [Compound 79]
Plant response rating, Speedwell ([1]; 16 g ai/ha, scale of 0 to 100): 85 | Plant response rating, Speedwell ([1]; 31 g ai/ha, scale 0 to 100): 90 | Speedwell plant response rating ([1]; 62 g ai/ha): 98 | Speedwell plant response rating ([1]; 125 g ai/ha): 100 | Plant response rating, Pigweed, Palmer ([2]; 16 g ai/ha, scale of 0 to 100): 60 | Plant response rating, Pigweed, Palmer ([2]; 31 g ai/ha, scale 0 to 100): 80 | Pigweed, Palmer plant response rating ([2]; 62 g ai/ha): 70 | Pigweed, Palmer plant response rating ([2]; 125 g ai/ha): 85 | Plant response rating, Poinsettia, Wild ([3]; 16 g ai/ha, scale of 0 to 100): 30 | Plant response rating, Poinsettia, Wild ([3]; 31 g ai/ha, scale 0 to 100): 75 | Poinsettia, Wild plant response rating ([3]; 62 g ai/ha): 80 | Poinsettia, Wild plant response rating ([3]; 125 g ai/ha): 85 | Plant response rating, Surinam Grass ([4]; 16 g ai/ha, scale of 0 to 100): 25 | Plant response rating, Surinam Grass ([4]; 31 g ai/ha, scale 0 to 100): 25 | Surinam Grass plant response rating [4, 19]: 35 | Plant response rating, Field Violet ([5]; 16 g ai/ha, scale of 0 to 100): 70 | Plant response rating, Field Violet ([5]; 31 g ai/ha, scale 0 to 100): 75 | Field Violet plant response rating ([5]; 62 g ai/ha): 85 | Field Violet plant response rating ([5]; 125 g ai/ha): 90 | Plant response rating, Johnsongrass ([6]; 16 g ai/ha, scale of 0 to 100): 40 | Plant response rating, Johnsongrass ([6]; 31 g ai/ha, scale 0 to 100): 65 | Johnsongrass plant response rating ([6]; 62 g ai/ha): 60 | Johnsongrass plant response rating ([6]; 125 g ai/ha): 85 | Plant response rating, Nightshade ([7]; 16 g ai/ha, scale of 0 to 100): 90 | Plant response rating, Nightshade ([7]; 31 g ai/ha, scale 0 to 100): 95 | Nightshade plant response rating ([7]; 62 g ai/ha): 95 | Nightshade plant response rating ([7]; 125 g ai/ha): 100 | Plant response rating, Windgrass ([8]; 16 g ai/ha, scale of 0 to 100): 20 | Plant response rating, Windgrass ([8]; 31 g ai/ha, scale 0 to 100): 35 | Windgrass plant response rating [8, 19]: 30 | Plant response rating, Field Poppy ([9]; 16 g ai/ha, scale of 0 to 100): 85 | Plant response rating, Field Poppy ([9]; 31 g ai/ha, scale 0 to 100): 98 | Field Poppy plant response rating ([9]; 62 g ai/ha): 100 | Field Poppy plant response rating ([9]; 125 g ai/ha): 100 | Plant response rating, Canada Thistle ([10]; 16 g ai/ha, scale of 0 to 100): 55 | Plant response rating, Canada Thistle ([10]; 31 g ai/ha, scale 0 to 100): 65 | Canada Thistle plant response rating ([10]; 62 g ai/ha): 70 | Canada Thistle plant response rating ([10]; 125 g ai/ha): 100 | Plant response rating, Geranium, Cutleaf ([11]; 16 g ai/ha, scale of 0 to 100): 45 | Plant response rating, Geranium, Cutleaf ([11]; 31 g ai/ha, scale 0 to 100): 50 | Geranium, Cutleaf plant response rating ([11]; 62 g ai/ha): 55 | Geranium, Cutleaf plant response rating ([11]; 125 g ai/ha): 65 | Plant response rating, Buckwheat, Wild ([12]; 16 g ai/ha, scale of 0 to 100): 75 | Plant response rating, Buckwheat, Wild ([12]; 31 g ai/ha, scale 0 to 100): 80 | Buckwheat, Wild plant response rating ([12]; 62 g ai/ha): 85 | Buckwheat, Wild plant response rating ([12]; 125 g ai/ha): 90 | Plant response rating, Poinsettia, Wild ([13]; 16 g ai/ha, scale 0 to 100): 0 | Plant response rating, Poinsettia, Wild ([13]; 31 g ai/ha, scale 0 to 100): 0 | Plant response rating, Poinsettia, Wild ([13]; 62 g ai/ha, scale 0 to 100): 10 | Plant response rating, Poinsettia, Wild ([13]; 125 g ai/ha, scale of 0 to 100): 40 | Plant response rating, Pigweed, Palmer ([14]; 16 g ai/ha, scale 0 to 100): 75 | Plant response rating, Pigweed, Palmer ([14]; 31 g ai/ha, scale 0 to 100): 85 | Plant response rating, Pigweed, Palmer ([14]; 62 g ai/ha, scale 0 to 100): 90 | Plant response rating, Pigweed, Palmer ([14]; 125 g ai/ha, scale of 0 to 100): 90 | Plant response rating, Johnsongrass ([15]; 16 g ai/ha, scale 0 to 100): 0 | Plant response rating, Johnsongrass ([15]; 31 g ai/ha, scale 0 to 100): 5 | Plant response rating, Johnsongrass ([15]; 62 g ai/ha, scale 0 to 100): 50 | Plant response rating, Johnsongrass ([15]; 125 g ai/ha, scale of 0 to 100): 70 | Plant response rating, Nightshade ([16]; 16 g ai/ha, scale 0 to 100): 30 | Plant response rating, Nightshade ([16]; 31 g ai/ha, scale 0 to 100): 65 | Plant response rating, Nightshade ([16]; 62 g ai/ha, scale 0 to 100): 80 | Plant response rating, Nightshade ([16]; 125 g ai/ha, scale of 0 to 100): 95 | Plant response rating, Windgrass ([17]; 16 g ai/ha, scale 0 to 100): 60 | Plant response rating, Windgrass ([17]; 31 g ai/ha, scale 0 to 100): 80 | Plant response rating, Windgrass ([17]; 62 g ai/ha, scale 0 to 100): 100 | Plant response rating, Windgrass ([17]; 125 g ai/ha, scale of 0 to 100): 100 | Plant response rating, Barnyardgrass ([18]; 62 g ai/ha, scale of 0 to 100): 75 | Plant response rating, Barnyardgrass ([18]; 125 g ai/ha, scale of 0 to 100): 95 | Plant response rating, Barnyardgrass ([18]; 16 g ai/ha, scale 0 to 100): 5 | Plant response rating, Barnyardgrass ([18]; 31 g ai/ha, scale 0 to 100): 60
